Results reported in PubChem BioAssay (NCI).
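Cultured in 96-well plates, cells were exposed to test compound for 48 hours across five concentrations. GI50 marks 50% less growth. TGI: total growth inhibition.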

Key:
Test in all cases: NCI anticancer screen, dose series, 48 h; in the data active = GI50 below about 0.43 µM; inactive = the rest
T-47D breast = tested on: T-47D breast
KM12 colon = tested on: KM12 colon
HCC-2998 colon = tested on: HCC-2998 colon
786-0 renal = tested on: 786-0 renal
NCI/ADR-RES ovarian = tested on: NCI/ADR-RES ovarian
SW-620 colon = tested on: SW-620 colon
NCI-H460 lung = tested on: NCI-H460 lung
SK-MEL-5 melanoma = tested on: SK-MEL-5 melanoma
A549 NSCLC = tested on: A549 NSCLC
SF-295 CNS = tested on: SF-295 CNS

COc1ccc(-c2cc(-c3ccc(Cl)cc3)c(C#N)c(=O)n2CCCCCC(=O)Nc2ccccc2N)cc1
3.73 µM: TGI (SK-MEL-5 melanoma)
> 100 µM: TGI (T-47D breast) | TGI (786-0 renal) | TGI (NCI/ADR-RES ovarian) | TGI (SW-620 colon) | TGI (A549 NSCLC)
36.5 µM: TGI (HCC-2998 colon)
inactive: GI50 (T-47D breast) 3.33 µM | GI50 (KM12 colon) 4.58 µM | GI50 (HCC-2998 colon) 4.02 µM | GI50 (786-0 renal) 4.49 µM | GI50 (NCI/ADR-RES ovarian) 3.99 µM | GI50 (SW-620 colon) 3.87 µM | GI50 (NCI-H460 lung) 3.42 µM | GI50 (SK-MEL-5 melanoma) 1.93 µM | GI50 (A549 NSCLC) 4.06 µM
27 µM: TGI (KM12 colon)
27.2 µM: TGI (NCI-H460 lung)

CN(C)c1ccc(-c2cc(-c3cccc(NS(C)(=O)=O)c3)nc(N)c2C#N)cc1
> 56.2 µM: TGI (A549 NSCLC)
active: GI50 (SF-295 CNS) 0.0274 µM | GI50 (KM12 colon) 0.0381 µM | GI50 (HCC-2998 colon) 0.0925 µM | GI50 (786-0 renal) 0.0491 µM | GI50 (SW-620 colon) 0.0411 µM | GI50 (NCI-H460 lung) 0.0378 µM | GI50 (SK-MEL-5 melanoma) 0.0414 µM | GI50 (A549 NSCLC) 0.0537 µM
13.5 µM: TGI (786-0 renal)
0.997 µM: TGI (SK-MEL-5 melanoma)
0.866 µM: TGI (HCC-2998 colon)
3.95 µM: TGI (SF-295 CNS)
18.6 µM: TGI (SW-620 colon) | TGI (NCI-H460 lung)
1.75 µM: TGI (KM12 colon)
inactive: GI50 (T-47D breast) 0.951 µM
35.9 µM: TGI (T-47D breast)

O=C(/C=C/c1c[nH]c2ccccc12)c1ccccc1O
59.7 µM: TGI (SW-620 colon)
27.1 µM: TGI (HCC-2998 colon)
25.5 µM: TGI (786-0 renal)
28.3 µM: TGI (NCI-H460 lung)
70.1 µM: TGI (KM12 colon)
7.29 µM: TGI (T-47D breast)
24.5 µM: TGI (A549 NSCLC)
22.3 µM: TGI (SF-295 CNS)

c1c[nH]c(CN2CCN(Cc3ncc[nH]3)CC2)n1
> 100 µM: TGI (T-47D breast) | TGI (SF-295 CNS) | TGI (KM12 colon) | TGI (786-0 renal) | TGI (NCI/ADR-RES ovarian) | TGI (SW-620 colon) | TGI (NCI-H460 lung) | TGI (SK-MEL-5 melanoma) | TGI (A549 NSCLC)

Cc1nn(-c2ccccc2)c2c1[C@@H](C)[C@H]1CC3(CC4(C)C[C@@H]3C1(C)c1c(C)nn(-c3ccccc3)c1N4C)N2C (stereo partly drawn)
inactive: GI50 (T-47D breast) 2.64 µM | GI50 (HCC-2998 colon) > 100 µM | GI50 (786-0 renal) > 100 µM | GI50 (NCI/ADR-RES ovarian) > 100 µM
> 100 µM: TGI (T-47D breast) | TGI (HCC-2998 colon) | TGI (786-0 renal) | TGI (NCI/ADR-RES ovarian)

Cc1cc(Br)ccc1N=NC1C(=O)ON=C1c1ccccc1 (stereo not drawn)
> 100 µM: TGI (SF-295 CNS) | TGI (KM12 colon) | TGI (786-0 renal) | TGI (SW-620 colon) | TGI (NCI-H460 lung) | TGI (SK-MEL-5 melanoma) | TGI (A549 NSCLC)
76.4 µM: TGI (HCC-2998 colon)

CC(=O)[O-].O=C([CH-]C(=O)c1ccccc1)c1ccccc1.O=C([CH-]C(=O)c1ccccc1)c1ccccc1.[Dy+3]
35.9 µM: TGI (786-0 renal)
20.9 µM: TGI (SK-MEL-5 melanoma)
inactive: GI50 (SF-295 CNS) 7.73 µM | GI50 (KM12 colon) 21 µM | GI50 (HCC-2998 colon) 11.6 µM | GI50 (786-0 renal) 12 µM | GI50 (SW-620 colon) 7.27 µM | GI50 (NCI-H460 lung) 6.66 µM | GI50 (SK-MEL-5 melanoma) 6.5 µM | GI50 (A549 NSCLC) 18 µM
51.2 µM: TGI (A549 NSCLC)
36.2 µM: TGI (HCC-2998 colon)
28.8 µM: TGI (SF-295 CNS)
> 100 µM: TGI (KM12 colon) | TGI (SW-620 colon) | TGI (NCI-H460 lung)

O=C(N=Nc1c(O)[nH]c2c(Cl)cc(Cl)cc12)C(=O)Nc1cccc(C(F)(F)F)c1
> 100 µM: TGI (SF-295 CNS) | TGI (KM12 colon) | TGI (HCC-2998 colon) | TGI (786-0 renal) | TGI (NCI/ADR-RES ovarian) | TGI (SW-620 colon) | TGI (NCI-H460 lung) | TGI (SK-MEL-5 melanoma) | TGI (A549 NSCLC)

CCCCCCCCCCCCCCCCCCCCCCC(=O)N[C@H]1CCc2cc(OC)c(OC)c(OC)c2-c2ccc(SC)c(=O)cc21
65.9 µM: TGI (HCC-2998 colon)
> 100 µM: TGI (SF-295 CNS) | TGI (KM12 colon) | TGI (786-0 renal) | TGI (SW-620 colon) | TGI (SK-MEL-5 melanoma) | TGI (A549 NSCLC)
83 µM: TGI (NCI-H460 lung)

CC(=O)Nc1ccc(/C=C/C(=O)c2sc(-n3nc(-c4ccccc4)cc3-c3ccccc3)nc2C)cc1
inactive: GI50 (SF-295 CNS) > 100 µM | GI50 (HCC-2998 colon) > 100 µM | GI50 (786-0 renal) > 100 µM | GI50 (SW-620 colon) > 100 µM | GI50 (NCI-H460 lung) > 100 µM | GI50 (A549 NSCLC) > 100 µM
> 100 µM: TGI (SF-295 CNS) | TGI (KM12 colon) | TGI (HCC-2998 colon) | TGI (786-0 renal) | TGI (SW-620 colon) | TGI (NCI-H460 lung) | TGI (SK-MEL-5 melanoma) | TGI (A549 NSCLC)

O=C1N(c2ccccc2)C2(O)C(=O)c3ccccc3C2(O)N1c1ccccc1 (stereo not drawn)
> 100 µM: TGI (SF-295 CNS) | TGI (KM12 colon) | TGI (HCC-2998 colon) | TGI (786-0 renal) | TGI (SW-620 colon) | TGI (NCI-H460 lung) | TGI (SK-MEL-5 melanoma) | TGI (A549 NSCLC)

CCN(CC)CCCC(C)Nc1ccnc2cc(OC)ccc12 (stereo not drawn)
58.2 µM: TGI (SW-620 colon)
32.8 µM: TGI (SK-MEL-5 melanoma)
35.9 µM: TGI (786-0 renal)
> 100 µM: TGI (SF-295 CNS) | TGI (KM12 colon) | TGI (NCI/ADR-RES ovarian) | TGI (NCI-H460 lung)
inactive: GI50 (SF-295 CNS) 34.3 µM | GI50 (KM12 colon) 26.4 µM | GI50 (HCC-2998 colon) 14.7 µM | GI50 (786-0 renal) 17.1 µM | GI50 (NCI/ADR-RES ovarian) 91.1 µM | GI50 (SW-620 colon) 23.7 µM | GI50 (NCI-H460 lung) > 100 µM | GI50 (SK-MEL-5 melanoma) 18.3 µM | GI50 (A549 NSCLC) 18.3 µM
28.4 µM: TGI (HCC-2998 colon)
35.5 µM: TGI (A549 NSCLC)

O=c1ccn([C@@H]2C[C@H](CO)CS(=O)C2)c(=O)[nH]1 (stereo partly drawn)
> 100 µM: TGI (SF-295 CNS) | TGI (KM12 colon) | TGI (HCC-2998 colon) | TGI (786-0 renal) | TGI (SW-620 colon) | TGI (NCI-H460 lung) | TGI (SK-MEL-5 melanoma) | TGI (A549 NSCLC)

CCOc1ccc(/C=C/C(=O)c2sc(NNC(C)=O)nc2C)cc1
> 100 µM: TGI (SF-295 CNS) | TGI (KM12 colon) | TGI (HCC-2998 colon) | TGI (786-0 renal) | TGI (SW-620 colon) | TGI (NCI-H460 lung) | TGI (SK-MEL-5 melanoma) | TGI (A549 NSCLC)
